Data reported in patent US20220073532A1, “INHIBITORS OF CGAS ACTIVITY AS THERAPEUTIC AGENTS” (BELLBROOK LABS, LLC, priority 2019, published 2022).

Tests used:
[1] = Human microsomal stability (NADPH); assay type: in vitro ADME; conditions: liver microsomes, read-out: Human MS Stability (NADPH) t1/2
Description: ADME/PK: Compounds are tested in Caco-2 and MDR1-MDCK permeability assays to provide a measure of intestinal absorption, blood-brain-permeability and efflux by P-glycoprotein (P-gp), a frequent obstacle to effective CNS delivery. CNS drugs are associated with high passive membrane permeability (Papp>1×10^−6 cm/sec) and have low efflux ratios (Papp(B-A)/Papp(A-B)<2.5). Metabolic stability is tested using mouse and human liver microsomes incubated with NADPH for CYP-dependent metabolism and with UDPGA for glucuronidation. Compounds are tested for pharmacokinetics and brain penetration in mice using oral, intravenous and intraperitoneal administration.

[2] = system: IRF3-driven Luc expression in THP-1 Dual cells; test: THP-1 Dual IRF3-Luc reporter assay; assay type: cell-based, human
Description: (§1) IFN induction in human monocyte cell lines: The human monocyte cell line THP-1 gives a robust cGAS/STING-dependent type I IFN response and has been used extensively for studies on the pathway. Typically, cells are stimulated by transfection with dsDNA and gene expression is assessed using an ELISA for IFNβ, a reporter gene assay, and/or cGAS/STING pathway markers such as STING phosphorylation. These assays were validated using the TBK1 inhibitor, BX-795, which acts downstream of cGAS/STING, as a probe; THP-1 Dual cells (Invivogen, San Diego) are used as the reporter cell line for routine compound testing (FIG. 5A). These assays were optimized, including equalizing responses with transfected DNA and cGAMP and comparing responses between undifferentiated cells and cells that have been differentiated to macrophages (which show little difference). […] Stimulation of THP-1 Dual cells with damage-associated molecular pattern molecules (DAMPs) that act through pattern recognition receptors other than cGAS provides another way to confirm the specificity of putative cGAS inhibitors.

[3] = system: NFκB-driven SEAP expression in THP-1 Dual cells; test: THP-1 Dual NFκB-SEAP reporter assay; assay type: cell-based, human; conditions: THP-1 Dual cells
Description: as §1

Mouse cGAS = Mouse cGAS (Mus musculus, UniProt Q8C6L5); test: cGAS enzymatic assay with mouse cGAS; assay type: biochemical
Description: Biochemical and biophysical analysis: Potency and MOA studies, including Mn^2+ sensitivity, are performed using the cGAS enzymatic assay. Dose response experiments are used to determine IC50 values under basal conditions (5 mM MgCl2, 100 μM ATP/GTP), and with the addition of physiological levels of Mn (0.2 mM) using human and mouse cGAS. Ligand optimization is driven by potency with the human enzyme; potency with mouse cGAS informs selection of an appropriate disease model for efficacy studies. Competition with ATP and GTP is assessed by comparing basal IC50 values to those in the presence of saturating ATP or GTP, and subsequently confirmed by measuring velocity vs. substrate at varying ATP or GTP levels. Inhibitor residence times (1/koff) are used as a key parameter for prioritizing compounds and driving SAR, because a longer residence time often results from an allosteric mechanism, and can also correlate with improved cellular activity. The cGAS enzymatic assay is used with the jump dilution method to measure residence times (inhibitor dissociation rates), as described for kinases using the very similar ADP assay. Biophysical methods, including SPR and TSA, are used as orthologous methods for residence time measurements and kd estimates.

cGAS = cGAS (Homo sapiens, UniProt Q8N884); test: SPR / biophysical binding to cGAS; conditions: enzymatic analysis and SPR, TSA
From the text: Following confirmation of hits at three concentrations and removal of compounds with visually evident reactivity or metabolic liabilities, non-stoichiometric inhibitors, aggregators, DNA intercalators and redox-active compounds were triaged (FIG. 2E) using established assays. […] Initial SAR based on more than 100 commercially available analogs provided additional confidence that the compounds were bonafide inhibitors, and informed potential scaffold hops and toleration for modifications.
A highly efficient platform for preclinical drug discovery (FIG. 3) was assembled, providing for development of cGAS inhibitors, which is improved by the addition of a powerful computational modeling method and in vivo PK studies (FIG. 3). […]
Biochemical and biophysical analysis: Potency and MOA studies, including Mn^2+ sensitivity, are performed using the cGAS enzymatic assay. […] Competition with ATP and GTP is assessed by comparing basal IC50 values to those in the presence of saturating ATP or GTP, and subsequently confirmed by measuring velocity vs. substrate at varying ATP or GTP levels. […]

Chain of Mouse cGAS (Q8C6L5 whole entry): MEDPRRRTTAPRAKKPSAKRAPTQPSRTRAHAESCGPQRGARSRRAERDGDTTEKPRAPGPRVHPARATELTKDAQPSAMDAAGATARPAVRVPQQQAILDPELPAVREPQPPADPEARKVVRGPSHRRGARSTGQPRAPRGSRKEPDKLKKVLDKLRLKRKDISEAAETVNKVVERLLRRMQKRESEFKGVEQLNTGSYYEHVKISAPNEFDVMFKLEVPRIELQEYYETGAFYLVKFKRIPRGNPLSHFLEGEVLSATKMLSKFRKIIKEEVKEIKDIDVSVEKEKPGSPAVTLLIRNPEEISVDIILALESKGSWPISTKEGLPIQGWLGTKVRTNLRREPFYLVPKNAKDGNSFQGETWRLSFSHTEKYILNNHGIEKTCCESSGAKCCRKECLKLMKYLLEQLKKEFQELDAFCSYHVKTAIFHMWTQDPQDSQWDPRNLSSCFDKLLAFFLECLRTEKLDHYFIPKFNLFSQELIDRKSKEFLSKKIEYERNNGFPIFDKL
Chain of cGAS (Q8N884 whole entry): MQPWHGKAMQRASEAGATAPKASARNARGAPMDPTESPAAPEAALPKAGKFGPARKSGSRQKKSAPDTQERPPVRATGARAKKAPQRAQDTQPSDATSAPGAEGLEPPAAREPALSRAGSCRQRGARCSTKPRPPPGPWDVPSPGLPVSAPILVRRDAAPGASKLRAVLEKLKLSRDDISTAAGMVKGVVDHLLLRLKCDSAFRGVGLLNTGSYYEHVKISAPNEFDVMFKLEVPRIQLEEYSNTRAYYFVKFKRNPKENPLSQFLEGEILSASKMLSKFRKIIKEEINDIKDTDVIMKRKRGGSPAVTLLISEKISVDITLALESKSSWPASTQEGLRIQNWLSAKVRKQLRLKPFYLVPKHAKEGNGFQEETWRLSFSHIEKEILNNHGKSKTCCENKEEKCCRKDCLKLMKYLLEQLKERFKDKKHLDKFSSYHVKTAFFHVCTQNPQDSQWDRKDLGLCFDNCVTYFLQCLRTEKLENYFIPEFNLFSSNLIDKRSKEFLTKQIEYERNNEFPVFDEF

What does the source list for Cc1nc(N2CCC[C@H]2C(=O)O)c2oc3ccccc3c2n1 [Compound 15, (2-methylbenzofuro[3,2-d]pyrimidin-4-yl)-L-proline]?
half-life [1]: > 2 h; inhibition of IRF3 (Luc)-driven transcription ([2]; THP-1 Dual cells): 50-75%; inhibition in cGAMP-stimulated cells with cGAS present ([2]; cGAMP-stimulated THP-1 Dual cells): still caused inhibition, though to a lesser degree; cGAS-dependent cellular activity ([2]; human monocyte cell line THP-1): cGAS-dependent inhibition of type I IFN; inhibition of NFκB (SEAP)-driven transcription [3]: 50-75%; IC50 (Mouse cGAS): > 150 µM; binding stoichiometry to cGAS (cGAS): Stoichiometric binding (1:1)
